This is an account of results in PubChem BioAssay AID1259407 (Chemical Carcinogenesis Research Information System (CCRIS), 2018).

Activity calls are given as the source filed them. How the calls were made is not given here.

This data set relates to CCRIS mutagenicity, Ames/micronucleus/aberration tests. The data set is described as follows: CCRIS mutagenicity studies.
Setting [1] is: Test System: AMES SALMONELLA TYPHIMURIUM, Strain/Indicator: TA100, Metabolic Activation: NONE, Method: STANDARD PLATE.
Where [2] appears, read: Test System: AMES SALMONELLA TYPHIMURIUM, Strain/Indicator: TA100, Metabolic Activation: RAT, LIVER, S-9, Method: PREINCUBATION

As for `O=[N+]([O-])c1ccc2c3c(cccc13)-c1ccccc1-2`, the mutagenic call is, setting by setting: (Test System: AMES SALMONELLA TYPHIMURIUM, Strain/Indicator: TA97, Metabolic Activation: NONE) “active; positive”; (Test System: AMES SALMONELLA TYPHIMURIUM, Strain/Indicator: TA98(1,8-DNP6), Metabolic Activation: NONE) “active; positive”; (Test System: AMES SALMONELLA TYPHIMURIUM, Strain/Indicator: TA98(1,8-DNP6), Metabolic Activation: NONE, Method: STANDARD PLATE) “active; positive”; (Test System: AMES SALMONELLA TYPHIMURIUM, Strain/Indicator: TA98(NR), Metabolic Activation: NONE) “active; positive”; (Test System: AMES SALMONELLA TYPHIMURIUM, Strain/Indicator: TA98(NR), Metabolic Activation: NONE, Method: STANDARD PLATE) “active; positive”; (Test System: AMES SALMONELLA TYPHIMURIUM, Strain/Indicator: TA98, Metabolic Activation: NONE) “active; positive”. Further, the mutagenic call is, setting by setting: (Test System: AMES SALMONELLA TYPHIMURIUM, Strain/Indicator: TA98, Metabolic Activation: RAT, LIVER, S-9, AROCLOR 1254, Method: STANDARD PLATE) “active; positive”; (Test System: AMES SALMONELLA TYPHIMURIUM, Strain/Indicator: TA100(NR), Metabolic Activation: NONE, Method: STANDARD PLATE) “inactive; negative”; (Test System: AMES SALMONELLA TYPHIMURIUM, Strain/Indicator: TA100(TN5-1,8-DNP1012), Metabolic Activation: NONE, Method: STANDARD PLATE) “inactive; negative”; (Test System: AMES SALMONELLA TYPHIMURIUM, Strain/Indicator: TA100, Metabolic Activation: NONE) “active; positive”; under setting [1], “active; positive”; (Test System: AMES SALMONELLA TYPHIMURIUM, Strain/Indicator: TA1535, Metabolic Activation: NONE) “inactive; negative”. For the same compound, the mutagenic call (Test System: AMES SALMONELLA TYPHIMURIUM, Strain/Indicator: TA1537, Metabolic Activation: NONE) was “active; positive”; the mutagenic call (Test System: AMES SALMONELLA TYPHIMURIUM, Strain/Indicator: TA1538, Metabolic Activation: NONE) was “active; positive”; the mutagenic call (Test System: AMES SALMONELLA TYPHIMURIUM, Strain/Indicator: TA1978, Metabolic Activation: NONE) is “active; positive”; the mutagenic call (Test System: AMES SALMONELLA TYPHIMURIUM, Strain/Indicator: TA7001, Metabolic Activation: NONE, Method: PREINCUBATION) is “active; positive”; the mutagenic call (Test System: AMES SALMONELLA TYPHIMURIUM, Strain/Indicator: TA7002, Metabolic Activation: NONE, Method: PREINCUBATION) was “active; positive”; the mutagenic call (Test System: AMES SALMONELLA TYPHIMURIUM, Strain/Indicator: TA7003, Metabolic Activation: NONE, Method: PREINCUBATION) is “active; positive”. For the same compound, the mutagenic call (Test System: AMES SALMONELLA TYPHIMURIUM, Strain/Indicator: TA7004, Metabolic Activation: NONE, Method: PREINCUBATION) was “active; positive”; the mutagenic call (Test System: AMES SALMONELLA TYPHIMURIUM, Strain/Indicator: TA7005, Metabolic Activation: NONE, Method: PREINCUBATION) is “active; positive”; the mutagenic call (Test System: AMES SALMONELLA TYPHIMURIUM, Strain/Indicator: TA7006, Metabolic Activation: NONE, Method: PREINCUBATION) was “active; positive”; the mutagenic call (Test System: AMES SALMONELLA TYPHIMURIUM, Strain/Indicator: TM677, Metabolic Activation: RAT, LIVER, S-9, AROCLOR 1254, Method: STANDARD PLATE) is “active; positive”.
As to `Cc1c(N)ccc(N=Nc2ccccc2)c1N`, the mutagenic call reads like this: (Test System: AMES SALMONELLA TYPHIMURIUM, Strain/Indicator: TA100, Metabolic Activation: HUMAN, LIVER, S-9, Method: PREINCUBATION) “active; positive”; (Test System: AMES SALMONELLA TYPHIMURIUM, Strain/Indicator: TA100, Metabolic Activation: RAT, LIVER, S-9, BETA-NAPHTHOFLAVONE, Method: PREINCUBATION) “active; positive”; (Test System: AMES SALMONELLA TYPHIMURIUM, Strain/Indicator: TA100, Metabolic Activation: RAT, LIVER, S-9, PHENOBARBITAL, Method: PREINCUBATION) “active; positive”; under setting [2], “active; positive”; (Test System: UDS RODENT HEPATOCYTES, Strain/Indicator: THY INCORP, Metabolic Activation: NONE, Method: AUTORADIOGRAPHY) “active; positive”.
In the case of `COC1=CC=CC=CC1`, the mutagenic call was “inactive; negative” (Test System: AMES SALMONELLA TYPHIMURIUM, Strain/Indicator: TA98, Metabolic Activation: NONE, Method: PREINCUBATION); “inactive; negative” (Test System: AMES SALMONELLA TYPHIMURIUM, Strain/Indicator: TA98, Metabolic Activation: NONE, Method: STANDARD PLATE); “inactive; negative” (Test System: AMES SALMONELLA TYPHIMURIUM, Strain/Indicator: TA98, Metabolic Activation: RAT, LIVER, S-9, Method: PREINCUBATION); “inactive; negative” (Test System: AMES SALMONELLA TYPHIMURIUM, Strain/Indicator: TA98, Metabolic Activation: RAT, LIVER, S-9, Method: STANDARD PLATE); “inactive; negative” (Test System: AMES SALMONELLA TYPHIMURIUM, Strain/Indicator: TA100, Metabolic Activation: NONE, Method: PREINCUBATION); “inactive; negative” under setting [1]. Moreover, the mutagenic call under setting [2] was “inactive; negative”; the mutagenic call (Test System: AMES SALMONELLA TYPHIMURIUM, Strain/Indicator: TA100, Metabolic Activation: RAT, LIVER, S-9, Method: STANDARD PLATE) is “inactive; negative”; the mutagenic call (Test System: AMES SALMONELLA TYPHIMURIUM, Strain/Indicator: TA1535, Metabolic Activation: NONE, Method: PREINCUBATION) was “inactive; negative”; the mutagenic call (Test System: AMES SALMONELLA TYPHIMURIUM, Strain/Indicator: TA1535, Metabolic Activation: NONE, Method: STANDARD PLATE) is “inactive; negative”; the mutagenic call (Test System: AMES SALMONELLA TYPHIMURIUM, Strain/Indicator: TA1535, Metabolic Activation: RAT, LIVER, S-9, Method: PREINCUBATION) is “inactive; negative”; the mutagenic call (Test System: AMES SALMONELLA TYPHIMURIUM, Strain/Indicator: TA1535, Metabolic Activation: RAT, LIVER, S-9, Method: STANDARD PLATE) was “inactive; negative”. The mutagenic call is, setting by setting: (Test System: AMES SALMONELLA TYPHIMURIUM, Strain/Indicator: TA1537, Metabolic Activation: NONE, Method: PREINCUBATION) “inactive; negative”; (Test System: AMES SALMONELLA TYPHIMURIUM, Strain/Indicator: TA1537, Metabolic Activation: RAT, LIVER, S-9, Method: PREINCUBATION) “inactive; negative”; (Test System: AMES SALMONELLA TYPHIMURIUM, Strain/Indicator: TA1538, Metabolic Activation: NONE, Method: PREINCUBATION) “inactive; negative”; (Test System: AMES SALMONELLA TYPHIMURIUM, Strain/Indicator: TA1538, Metabolic Activation: NONE, Method: STANDARD PLATE) “active; positive”; (Test System: AMES SALMONELLA TYPHIMURIUM, Strain/Indicator: TA1538, Metabolic Activation: RAT, LIVER, S-9, Method: PREINCUBATION) “inactive; negative”; (Test System: AMES SALMONELLA TYPHIMURIUM, Strain/Indicator: TA1538, Metabolic Activation: RAT, LIVER, S-9, Method: STANDARD PLATE) “active; positive”. In addition, the mutagenic call (Test System: CHINESE HAMSTER V-79, Strain/Indicator: V-79/8-AZAGUANINE (HGPRT), Metabolic Activation: NONE, Method: STANDARD PLATE) is “active; positive”; the mutagenic call (Test System: CHINESE HAMSTER V-79, Strain/Indicator: V-79/8-AZAGUANINE (HGPRT), Metabolic Activation: RAT, LIVER, S-9, Method: STANDARD PLATE) is “active; positive”; the mutagenic call (Test System: MOUSE LYMPHOMA, Strain/Indicator: L5178Y (TK+/TK-), Metabolic Activation: NONE) was “inactive; negative”; the mutagenic call (Test System: MOUSE LYMPHOMA, Strain/Indicator: L5178Y (TK+/TK-), Metabolic Activation: RAT, LIVER, S-9) was “active; positive”; the mutagenic call (Test System: MOUSE LYMPHOMA, Strain/Indicator: L5178Y (TK+/TK-), Metabolic Activation: RAT, LIVER, S-9, AROCLOR 1254) is “active; positive”.
